Laboratory results: patent US8207176B2 (Glaxo Group Limited, priority 2005, dated 2012)
Counter-ions that a name gives are not always drawn.

Each compound was assayed on influx of neutrophils to the lung in LPS-challenged rats (assay: Rat LPS neutrophilia model). Settings: intratracheal, LPS aerosol 100 ug/ml 15 min, lavage 4 hours later, in at least one of the range of conditions tested, significant p<0.05, nonsignificant p>0.05.
Type: in vivo
Protocol: The effect of compounds on the influx of neutrophils to the lung in LPS-challenged rats is evaluated as follows. The test compound is suspended in one of the following solutions: 0.5% tween 80/PBS, 0.5% tween 80/saline, 10% EtOH/saline (with pH adjusted to 2.0, or 8.0 with HCl, or unadjusted), Saline @ pH 2.0, 6.5 or 8.0, 0.5% Tragacanth, 1% DMSO/20% Encapsin/Saline, or acidified 5% Tragacanth. The suspension process may be aided by the use of a glass homogenizer. For intratracheal administration, the animals are anesthetized with inhaled isoflurane and placed in a supine position, the trachea is intubated with a steel gavage needle (1.5 inch, 22 gauge, small ball) or a Penn-Century Microsprayer Aerosolizer (model IA-IB) and 200 ul of dosing solution is delivered. The animals are visually monitored during the recovery process, which typically occurs within two minutes. It is noted that the test compounds may be alternatively administered via the microsprayer in a dry powder blend with a suitable excipient, such as lactose.
Rats treated with compound or vehicle (15 min-24 hours pretreatment) are exposed to an LPS aerosol (100 ug/ml) for 15 min. Four hours later the rats are euthanized with pentobarbital (100 mg/kg, i.p.) and the airways are lavaged with 5 washes of 5 ml of phosphate buffered saline. The harvested cells are stained (Diffquick) and counted to determine total and differential cell data. […] Inhibition of neutrophil levels relative to no compound controls is calculated based on the differential counts.
The data is obtained as % inhibition using a particular concentration and pretreat time.

SMILES | inhibition of neutrophilia (neutrophil levels in lung lavage relative to no compound controls)
CCNC(=O)c1ccc(C)c(-c2nc(N3CCC(N4CCC(C)CC4)CC3)nc3c2ccc(=O)n3-c2c(F)cccc2F)c1 [Example 173, 3-[8-(2,6-difluorophenyl)-2-(4-methyl-1,4′-bipiperidin-1′-yl)-7-oxo-7,8-dihydropyrido[2,3-d]pyrimidin-4-yl]-N-ethyl-4-methylbenzamide] | statistically significant inhibition
CCN(CC)CCCNc1nc(-c2cc(C(=O)NCC3CCCCC3)ccc2C)c2ccc(=O)n(-c3c(F)cccc3F)c2n1 [Example 135, N-(cyclohexylmethyl)-3-[2-{[3-(diethylamino)propyl]amino}-8-(2,6-difluorophenyl)-7-oxo-7,8-dihydropyrido[2,3-d]pyrimidin-4-yl]-4-methylbenzamidetrifluoroacetate] | inactive
Cc1ccc(C(=O)Nc2nccs2)cc1-c1nc(N2CCC(N)CC2)nc2c1ccc(=O)n2-c1c(F)cccc1F [Example 73, 3-[2-(4-amino-1-piperidinyl)-8-(2,6-difluorophenyl)-7-oxo-7,8-dihydropyrido[2,3-d]pyrimidin-4-yl]-4-methyl-N-1,3-thiazol-2-ylbenzamide] | statistically significant inhibition
Cc1ccc(C(=O)NC2CC2)cc1-c1nc(N2CCC(N3CCC(C)CC3)CC2)nc2c1ccc(=O)n2-c1c(F)cccc1F [Example 178, N-cyclopropyl-3-[8-(2,6-difluorophenyl)-2-(4-methyl-1,4′-bipiperidin-1′-yl)-7-oxo-7,8-dihydropyrido[2,3-d]pyrimidin-4-yl]-4-methylbenzamide] | statistically nonsignificant inhibition
Cc1ccc(C(=O)NCc2ccccc2)cc1-c1nc(NCc2ncc[nH]2)nc2c1ccc(=O)n2-c1c(F)cccc1F [Example 77, 3-{8-(2,6-difluorophenyl)-2-[(1H-imidazol-2-ylmethyl)amino]-7-oxo-7,8-dihydropyrido[2,3-d]pyrimidin-4-yl}-4-methyl-N-(phenylmethyl)benzamide] | statistically significant inhibition
Cc1ccc(C(=O)NCC(C)C)cc1-c1nc(N2CCC(N3CCC(C)CC3)CC2)nc2c1ccc(=O)n2-c1c(F)cccc1F [Example 168, 3-[8-(2,6-difluorophenyl)-2-(4-methyl-1,4′-bipiperidin-1′-yl)-7-oxo-7,8-dihydropyrido[2,3-d]pyrimidin-4-yl]-4-methyl-N-(2-methylpropyl)benzamide] | inactive
Cc1ccc(C(=O)NC2CC2)cc1-c1nc(N2CCC(N)CC2)nc2c1ccc(=O)n2-c1c(F)cccc1F [Example 22, 3-[2-(4-amino-1-piperidinyl)-8-(2,6-difluorophenyl)-7-oxo-7,8-dihydropyrido[2,3-d]pyrimidin-4-yl]-N-cyclopropyl-4-methylbenzamide] | statistically significant inhibition
CCN(CC)CCCNc1nc(-c2cc(C(=O)N[C@H](C)C(C)C)ccc2C)c2ccc(=O)n(-c3c(F)cccc3F)c2n1 [Example 130] | statistically nonsignificant inhibition
Cc1ccc(C(=O)NC2CCCC2)cc1-c1nc(N2CCC(N)CC2)nc2c1ccc(=O)n2-c1c(F)cccc1F [Example 70, 3-[2-(4-amino-1-piperidinyl)-8-(2,6-difluorophenyl)-7-oxo-7,8-dihydropyrido[2,3-d]pyrimidin-4-yl]-N-cyclopentyl-4-methylbenzamide] | statistically nonsignificant inhibition
CCN(CC)CCCNc1nc(-c2cc(C(=O)NCC3CCCC3)ccc2C)c2ccc(=O)n(-c3c(F)cccc3F)c2n1 [Example 132, N-(cyclopentylmethyl)-3-[2-{[3-(diethylamino)propyl]amino}-8-(2,6-difluorophenyl)-7-oxo-7,8-dihydropyrido[2,3-d]pyrimidin-4-yl]-4-methylbenzamidetrifluoroacetate] | statistically nonsignificant inhibition
CNCCNc1nc(-c2cc(C(=O)NCC3CC3)ccc2C)c2ccc(=O)n(-c3c(F)cccc3F)c2n1 [Example 4] | statistically significant inhibition
Cc1ccc(C(=O)Nc2nccs2)cc1-c1nc(NCCCNC(C)C)nc2c1ccc(=O)n2-c1c(F)cccc1F [Example 101, 3-[8-(2,6-difluorophenyl)-2-({3-[(1-methylethyl)amino]propyl}amino)-7-oxo-7,8-dihydropyrido[2,3-d]pyrimidin-4-yl]-4-methyl-N-1,3-thiazol-2-ylbenzamide] | statistically significant inhibition
CCCCNC(=O)c1ccc(C)c(-c2nc(N3CCC(N4CCC(C)CC4)CC3)nc3c2ccc(=O)n3-c2c(F)cccc2F)c1 [Example 167, N-butyl-3-[8-(2,6-difluorophenyl)-2-(4-methyl-1,4′-bipiperidin-1′-yl)-7-oxo-7,8-dihydropyrido[2,3-d]pyrimidin-4-yl]-4-methylbenzamide] | statistically significant inhibition
Cc1ccc(C(=O)Nc2ccc(F)cc2)cc1-c1nc(N2CCC(N3CCC(C)CC3)CC2)nc2c1ccc(=O)n2-c1c(F)cccc1F [Example 174, 3-[8-(2,6-difluorophenyl)-2-(4-methyl-1,4′-bipiperidin-1′-yl)-7-oxo-7,8-dihydropyrido[2,3-d]pyrimidin-4-yl]N-(4-fluorophenyl)-4-methylbenzamide] | inactive
CNCCNc1nc(-c2cc(C(=O)Nc3ccc(F)cc3)ccc2C)c2ccc(=O)n(-c3c(F)cccc3F)c2n1 [Example 60, 3-(8-(2,6-difluorophenyl)-2-{[2-(methylamino)ethyl]amino}-7-oxo-7,8-dihydropyrido[2,3-d]pyrimidin-4-yl)-N-(4-fluorophenyl)-4-methylbenzamide] | statistically significant inhibition
Cc1ccc(C(=O)Nc2ccc(F)cc2)cc1-c1nc(N(C)CCN(C)C)nc2c1ccc(=O)n2-c1c(F)cccc1F [Example 99, 3-{8-(2,6-difluorophenyl)-2-[[2-(dimethylamino)ethyl](methyl)amino]-7-oxo-7,8-dihydropyrido[2,3-d]pyrimidin-4-yl}-N-(4-fluorphenyl)-4-methylbenzamide] | statistically nonsignificant inhibition
Cc1ccc(C(=O)Nc2ccc(F)cc2)cc1-c1nc(NCCN(C)C(=O)OC(C)(C)C)nc2c1ccc(=O)n2-c1c(F)cccc1F [Example 95, 1,1-dimethylethyl (2-{[8-(2,6-difluorophenyl)-4-(5-{[(4-fluorophenyl)amino]carbonyl}-2-methylphenyl)-7-oxo-7,8-dihydropyrido[2,3-d]pyrimidin-2-yl]amino}ethyl)methylcarbamate] | statistically nonsignificant inhibition
Cc1ccc(C(=O)NCCc2ccccc2)cc1-c1nc(NC2CC(C)(C)NC(C)(C)C2)nc2c1ccc(=O)n2-c1c(F)cccc1F [Example 28, 3-{8-(2,6-difluorophenyl)-7-oxo-2-[(2,2,6,6-tetramethyl-4-piperidinyl)amino]-7,8-dihydropyrido[2,3-d]pyrimidin-4-yl}-4-methyl-N-(2-phenylethyl)benzamide] | statistically nonsignificant inhibition
CCN(CC)CCCNc1nc(-c2cc(C(=O)NCC3CC3)ccc2C)c2ccc(=O)n(-c3c(F)cccc3F)c2n1 [Example 138, N-(cyclopropylmethyl)-3-[2-{[3-(diethylamino)propyl]amino}-8-(2,6-difluorophenyl)-7-oxo-7,8-dihydropyrido[2,3-d]pyridin-4-yl]-4-methylbenzamide trifluoroacetate] | statistically nonsignificant inhibition
CCCNC(=O)c1ccc(C)c(-c2nc(N3CCC(N)CC3)nc3c2ccc(=O)n3-c2c(F)cccc2F)c1 [Example 69, 3-[2-(4-amino-1-piperidinyl)-8-(2,6-difluorophenyl)-7-oxo-7,8-dihydropyrido[2,3-d]pyrimidin-4-yl]-4-methyl-N-propylbenzamide] | statistically significant inhibition
Cc1ccc(C(=O)Nc2nccs2)cc1-c1nc(NCCCNC(C)(C)C)nc2c1ccc(=O)n2-c1c(F)cccc1F [Example 102, 3-[8-(2,6-difluorophenyl)-2-({3-[(1,1-dimethylethyl)amino]propyl}amino)-7-oxo-7,8-dihydropyrido[2,3-d]pyrimidin-4-yl]-4-methyl-N-1,3-thiazol-2-ylbenzamide] | statistically nonsignificant inhibition
